# Read-outs that look alike come from different tables or passages of the source. *1 amine or outer side, *2 acyl side, *3 side chain or, on linkers, in order; H or OH if unused. Where a SMILES comes first, the peptide text is derived from it. Bridges are numbered along the chain shown (N, C = ends). [ ]: non-standard residue; d: D form. X1 = CC(=O)NC(C(=O)OC(C(C)C)C(N[*:1])C(=O)[*:2])C(O)C(C)C; PhLac = O=C(O)[CH](O)Cc1ccccc1; NMeT = CN[CH](C(=O)O)[CH](C)O; NMeA = CN[CH](C)C(=O)O; NMeDha = C=C(NC)C(=O)O
# Tests used:
# H9C2 cells = assay: Intracellular calcium mobilization assay in H9C2 cells; type: cell-based, rat; conditions: for inhibition of UTP-induced calcium response: 1 μM pretreatment 20 min
# adenylyl cyclase = assay: Forskolin-stimulated cAMP accumulation in H9C2 cells; type: cell-based, rat; conditions: PMA 1 μM 40 min, forskolin 10 μM
# A2BAR [1] = target: T1, A2BAR (Homo sapiens, UniProt P29275); assay: cAMP accumulation assay in naive HEK293 cells; type: cell-based; conditions: for effect on PKC (PMA)-induced enhancement of BAY-induced cAMP accumulation: inhibitor 1 μM, PMA 1 μM, BAY 10 μM
# T1 sequence (P29275 1-332): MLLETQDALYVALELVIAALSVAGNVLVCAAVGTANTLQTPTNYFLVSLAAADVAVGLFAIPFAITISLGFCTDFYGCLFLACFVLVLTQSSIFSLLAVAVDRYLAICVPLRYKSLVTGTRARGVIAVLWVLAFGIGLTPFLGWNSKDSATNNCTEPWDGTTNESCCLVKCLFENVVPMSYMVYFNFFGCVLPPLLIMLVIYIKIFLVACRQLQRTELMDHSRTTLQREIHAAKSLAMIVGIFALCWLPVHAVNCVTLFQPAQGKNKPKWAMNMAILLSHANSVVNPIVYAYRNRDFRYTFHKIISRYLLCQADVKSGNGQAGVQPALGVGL
# A2BAR [2] = target: T2, A2BAR (Rattus norvegicus, UniProt P29276); assay: cAMP accumulation assay in H9C2 cells endogenously expressing the A2BAR; type: cell-based
# T2 sequence (P29276 1-332): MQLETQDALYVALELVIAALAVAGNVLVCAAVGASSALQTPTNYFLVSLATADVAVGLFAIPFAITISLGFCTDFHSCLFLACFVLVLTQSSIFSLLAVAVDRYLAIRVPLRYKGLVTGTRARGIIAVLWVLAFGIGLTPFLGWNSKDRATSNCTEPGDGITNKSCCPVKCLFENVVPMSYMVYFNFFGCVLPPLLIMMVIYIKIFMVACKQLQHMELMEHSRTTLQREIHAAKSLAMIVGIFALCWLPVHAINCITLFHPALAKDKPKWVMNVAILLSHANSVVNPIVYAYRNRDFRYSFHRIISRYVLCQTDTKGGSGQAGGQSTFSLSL
# A2BAR [3] = target: T1, A2BAR; assay: cAMP accumulation in Gi-null HEK293-A2B cells; type: cell-based; conditions: read-out: Emax of cAMP accumulation (10 μM forskolin in HEK293-A2B = 100%)
# A2BAR [4] = target: T3, A2BAR (Mus musculus, UniProt Q60614); assay: cAMP accumulation in NIH3T3 cells endogenously expressing the A2BAR; type: cell-based; conditions: 20 min
# T3 sequence (Q60614 1-332): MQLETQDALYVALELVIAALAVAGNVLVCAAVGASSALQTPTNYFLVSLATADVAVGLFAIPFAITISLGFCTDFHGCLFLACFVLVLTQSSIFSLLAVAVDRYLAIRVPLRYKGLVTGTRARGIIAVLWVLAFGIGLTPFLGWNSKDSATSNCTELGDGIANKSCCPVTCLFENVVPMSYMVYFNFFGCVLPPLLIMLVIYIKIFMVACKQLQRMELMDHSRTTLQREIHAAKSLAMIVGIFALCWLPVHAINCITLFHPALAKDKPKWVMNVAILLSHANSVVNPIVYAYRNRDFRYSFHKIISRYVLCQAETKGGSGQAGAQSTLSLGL
# ERK1/2 = ERK1/2 activity assay in H9C2 cells; type: cell-based, rat
# A2BAR [5] = target: T1, A2BAR; assay: cAMP accumulation assay in HEK293-A2B cells; type: cell-based
# recombinant rat A2BAR = target: T4, recombinant rat A2BAR (Rattus norvegicus, UniProt P29276); assay: cAMP accumulation in H9C2 cells expressing the recombinant rat A2BAR; type: cell-based; conditions: H9C2 cells with rat A2BAR expression, 0.3 μg/well
# T4 sequence (P29276 1-332): T2 sequence (P29276 1-332)
# A2BAR [6] = target: T1, A2BAR; assay: Intracellular calcium mobilization assay in HEK293-A2B cells; type: cell-based; conditions: for effect on NECA-induced intracellular calcium mobilization: 1 μM pretreatment 20 min
# A2BAR [7] = target: T1, A2BAR; assay: Radioligand binding to membranes from HEK293-A2B cells
# A2BAR [8] = target: T1, A2BAR; assay: cAMP accumulation in Gi-null HEK293 cells; type: cell-based; conditions: PMA 1 μM 40 min
# A2BAR [9] = target: T1, A2BAR; type: cell-based
# PKCθ = conditions: reported selectivity profile, ref not given; cited from earlier work
# PKCδ = conditions: reported selectivity profile, ref not given; cited from earlier work
# [10] = HEK293-A2B cells treated with PMA 1 μM 40 min
structure (smiles),measurement,setting,value
"CCNC(=O)[C@H]1O[C@@H](n2cnc3c(N)ncnc32)[C@H](O)[C@@H]1O [NECA, adenosine-5′-N-ethyluronamide]",induction of calcium mobilization,H9C2 cells,did not induce calcium mobilization
"CCCCCCCCCCCCCC(=O)O[C@@H]1[C@@H](C)[C@@]2(O)[C@@H](C=C(CO)C[C@]3(O)C(=O)C(C)=C[C@@H]23)[C@@H]2C(C)(C)[C@]12OC(C)=O [PMA, phorbol 12-myristate 13-acetate]",effect of pretreatment on forskolin-stimulated cAMP accumulation,adenylyl cyclase,did not inhibit or enhance
same,Emax,"A2BAR [1]; HEK293, read-out: maximal stimulation relative to Emax of NECA",< 10%
same,maximal agonist effect (10 μM NECA = 100%),"A2BAR [1]; naive HEK293 cells, 20 min (Figure 7D)",7.36 ± 1.08%
same,enhancement of the function of BAY (cAMP accumulation),"A2BAR [1]; wild-type HEK293 cells, PMA 1 μM 40 min",95%
same,enhancement of A2BAR agonist-induced cAMP accumulation,"A2BAR [2]; H9C2 cells, PMA 1 nM pretreatment 40 min",25%
same,Emax of cAMP accumulation relative to NECA,"A2BAR [2]; naive H9C2 cells, 5 min (Figure S10)",about 20 % of NECA
same,maximal cAMP level (10 μM NECA = 100%),"A2BAR [2]; naive H9C2 cells, 20 min (Figure 7C)",20.0 ± 0.36%
same,EC50,"A2BAR [2]; potency of enhancing effect on A2BAR-mediated cAMP accumulation, H9C2 cells",~1 nM
same,Emax,A2BAR [3],19.3 ± 3.1%
same,cAMP accumulation versus NECA = 100%,A2BAR [4],34.9 ± 7.7%
same,ERK1/2 phosphorylation,"ERK1/2; PMA 1 μM, sustained over 30 min",> 300 % above baseline
same,EC50,"A2BAR [5]; EC50, cAMP accumulation, HEK293-A2B cells, incubated 60 min",56.4 nM
same,effect of pretreatment on NECA- or BAY-induced cAMP accumulation,"A2BAR [5]; HEK293-A2B cells, PMA 40 min",raised the basal cAMP level but not the Emax
same,Emax,A2BAR [5]; read-out: activation Emax (Emax of NECA = 100%),84.7%
same,maximal cAMP level (10 μM NECA = 100%),recombinant rat A2BAR,65.4 ± 8.0%
same,induction of calcium mobilization,A2BAR [6],did not induce calcium mobilization
same,effect on NECA-induced intracellular calcium mobilization,A2BAR [6],inhibited
same,effect of treatment on agonist [3H]NECA binding,A2BAR [7]; [10],significantly increased agonist binding
same,effect of treatment on antagonist [3H]DPCPX binding,A2BAR [7]; [10],did not affect
same,displacement of specific binding of [3H]NECA (25 nM),"A2BAR [7]; membranes from HEK293-A2B cells, 1 μM",1.6 ± 1.2%
same,enhancement of the function of BAY (cAMP accumulation),A2BAR [8],37%
same,inhibition of UTP-induced calcium response,H9C2 cells,completely inhibited
same,Emax,"A2BAR [9]; HEK293, read-out: Emax of cAMP accumulation (10 μM forskolin = 100%)",49.3 ± 4.6%
same,maximal agonist effect (10 μM NECA = 100%),"A2BAR [9]; HEK293 cells with recombinant human A2BAR expression, 0.3 μg/well",35.5 ± 5.0%
CCCn1c(=O)[nH]c2nc(-c3ccc(S(=O)(=O)N4CCN(c5ccc(Cl)cc5)CC4)cc3)[nH]c2c1=O [PSB603],effect on PMA-induced cAMP accumulation,"A2BAR [2]; naive H9C2 cells, antagonist 1 µM",inhibited
same,effect on PMA-induced ERK1/2 phosphorylation,ERK1/2; 1 μM added 20 min before PMA 1 μM,not affected
same,effect on NECA-induced intracellular calcium mobilization,A2BAR [6],inhibited
CN(C)C[C@H]1CCn2c(c(C3=C(c4cn(C)c5ccccc45)C(=O)NC3=O)c3ccccc32)C1 [RO320432],effect on PKC (PMA)-induced enhancement of BAY-induced cAMP accumulation,A2BAR [1]; naive HEK293 cells,blocked PKC-induced enhancement
CC(C)[C@H]1C(=O)N[C@H](CO)Cc2cc(NC(=O)/C=C/C=C/c3ccc(C(F)(F)F)cc3)ccc2N1C [TPPB],effect of pretreatment on BAY-induced cAMP accumulation,"A2BAR [1]; HEK293 cells, TPPB 1 µM 40 min",also enhanced the function of BAY
O=c1ccn([C@@H]2O[C@H](COP(=O)(O)OP(=O)(O)OP(=O)(O)O)[C@@H](O)[C@H]2O)c(=O)[nH]1 [UTP],induction of calcium mobilization,H9C2 cells,induced a robust calcium response
CC(C)[C@@](C)(O)[C@@H]1CN(c2nc(-c3[nH]nc4ncccc34)c(F)cc2Cl)CCN1 [VTX-27],effect on PKC (PMA)-induced enhancement of BAY-induced cAMP accumulation,A2BAR [1]; naive HEK293 cells,did not significantly inhibit
same,IC50,PKCθ,0.08 nM
same,IC50,PKCδ,16 nM
C=C1C(=O)NC(C)C(=O)N(C)C(C)C(=O)NC(C(OC(=O)C(NC(C)=O)C(O)C(C)C)C(C)C)C(=O)N(C)C(C(C)OC)C(=O)OC(C)C(NC(C)=O)C(=O)OC(Cc2ccccc2)C(=O)N1C (centres unmarked) [YM254890] (Ac-T[PhLac][NMeDha]A[NMeA][X1][NMeT](Me); ester 1-C; configuration not given here),inhibition of UTP-induced calcium response,H9C2 cells,completely inhibited

# — paper PMC10316653 (iScience, 2023)
